Results taken from patent US20230339978A1, “COMPOUNDS FOR PREVENTION OR TREATMENT OF NEURODEGENERATIVE DISORDERS” (1ST Biotherapeutics, Inc., priority 2020, published 2023).

What was measured:
[1] = tested on: IL-6 secretion in BV-2 cell; assay: IL-6 Secretion in BV-2 Cell (L18-MDP stimulated, ELISA); type: cell-based; settings: BV-2 mouse microglia cells, 10 µg/ml L18-MDP, 24 hr
Experimental: IL-6 Secretion in BV-2 Cell
BV-2 mouse microglia cells were kindly provided from Dr. Bae in Korea Institute of Science and Technology (KIST). BV-2 cells were thawed and suspended in Dulbecco’s modified eagle medium (DMEM) supplemented with 10% fetal bovine serum (FBS) and 1% Penicillin/Streptomycin. Cells were seeded into 96 well plates at 2X10^4 cells/well and allowed to attach for 24 hr. On the day of the experiment, various concentration of compounds were treated, and cells were stimulated with 10 µg/ml L18-MDP. After 24 hr incubation, supernatant was collected for cytokine assay.
Absorbance at 450 nm was measured using SpectraMax I3X microplate reader (Molecular Device). Values of media-only wells were subtracted and % inhibition for each compound concentration relative to the DMSO/L18-MDP-treated controls (100%) was calculated.

[2] = molecular target: GST-tagged recombinant human RIPK2 (Homo sapiens (Human), UniProt O43353); assay: RIP2 Kinase Assay (ADP-Glo); type: biochemical; settings: 25 µM ATP, MBP substrate, 30° C. 60 minutes
Experimental: GST-tagged recombinant human RIPK2(25 ng) is incubated with 5 µL of compounds (0.5% DMSO), 5 µL of MBP (0.5 µg/µl) and 5 µL of ATP (25 µM) in buffer (40 mM Tris, 7.5; 20 mM MgCl2; 0.1 mg/ml BSA; 50 µM DTT). The assay was started by incubating the reaction mixture in a 96-well plate at 30° C. for 60 minutes. After the incubation, 25 µL ADP-Glo reagent was added, and the reaction was incubated at 30° C. for 40 minutes to stop the reaction and degrade residual ATP. The ADP product was then converted to ATP by adding 50 µL per well of detection reagent. Luminescence was detected after 30 minutes room temperature incubation with the Molecular device I3X plate reader. The IC50 values were calculated from a series of percent inhibition values determined at a range of inhibitor concentration using software routines as implemented in the GraphPad Prism 7 software or SigmaPlot 13.0.

[3] = molecular target: His-tagged recombinant human ABL1 (Homo sapiens (Human), UniProt P00519); settings: read-out: c-Abl IC50; 25 µM ATP, Abltide substrate, 30° C. 30-min
Chain of His-tagged recombinant human ABL1 (P00519 whole entry): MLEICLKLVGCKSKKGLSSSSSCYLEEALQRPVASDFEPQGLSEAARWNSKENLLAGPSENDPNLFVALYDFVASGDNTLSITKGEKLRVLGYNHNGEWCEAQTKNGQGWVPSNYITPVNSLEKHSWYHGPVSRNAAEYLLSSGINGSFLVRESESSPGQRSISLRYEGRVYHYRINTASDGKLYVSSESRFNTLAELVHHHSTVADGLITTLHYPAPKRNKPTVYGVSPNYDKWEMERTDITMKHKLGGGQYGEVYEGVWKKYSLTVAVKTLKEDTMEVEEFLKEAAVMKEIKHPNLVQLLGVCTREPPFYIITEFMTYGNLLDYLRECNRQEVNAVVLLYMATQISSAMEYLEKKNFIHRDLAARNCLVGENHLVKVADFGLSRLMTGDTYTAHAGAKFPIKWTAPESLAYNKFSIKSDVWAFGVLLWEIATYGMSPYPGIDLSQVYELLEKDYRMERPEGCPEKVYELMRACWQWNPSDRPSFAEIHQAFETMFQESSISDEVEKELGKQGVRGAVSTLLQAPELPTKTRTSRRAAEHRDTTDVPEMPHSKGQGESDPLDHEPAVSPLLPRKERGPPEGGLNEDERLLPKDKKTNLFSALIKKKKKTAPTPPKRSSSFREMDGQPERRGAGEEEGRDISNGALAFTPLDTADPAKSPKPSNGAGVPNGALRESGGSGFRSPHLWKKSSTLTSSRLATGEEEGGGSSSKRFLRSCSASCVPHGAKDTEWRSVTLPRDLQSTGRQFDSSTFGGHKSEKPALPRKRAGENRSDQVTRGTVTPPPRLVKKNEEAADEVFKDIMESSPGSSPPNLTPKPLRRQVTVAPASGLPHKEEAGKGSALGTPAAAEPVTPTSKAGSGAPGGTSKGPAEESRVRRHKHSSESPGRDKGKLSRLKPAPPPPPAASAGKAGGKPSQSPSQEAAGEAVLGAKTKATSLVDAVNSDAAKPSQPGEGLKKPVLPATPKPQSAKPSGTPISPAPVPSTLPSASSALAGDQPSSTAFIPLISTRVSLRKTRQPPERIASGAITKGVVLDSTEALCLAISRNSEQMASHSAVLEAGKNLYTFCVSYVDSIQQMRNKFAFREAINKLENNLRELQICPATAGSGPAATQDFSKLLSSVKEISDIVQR
Experimental: ADP-Glo assay kit was purchased from Promega. Magnesium chloride (MgCl2), bovine serum albumin (BSA), ethylene glycol-bis(β-aminoethyl ether)-N,N,N′,N′-tetraacetic acid (EGTA), tween-20, 1,4-dithiothreitol (DTT) and dimethyl sulfoxide (DMSO) were purchased from Sigma-Aldrich. HEPES buffer was purchased from Gibco. ABL1 kinase and Abltide were purchased from Signalchem.
c-Abl kinase activity was measured by Promega’s ADP-Glo ® Assay. In this assay, His-tagged recombinant human ABL1 (0.25 ng/µl) is incubated with 5 µL of compounds (0.5% DMSO), 5 µL of Abltide (0.01 µg/µl) and 5 µL of ATP (25 µM) in buffer (50 mM HEPES,7.5; 10 mM MgCl2; 1 mM EGTA; 0.05% BSA; 0.01% Tween-20; 2 mM DTT.). The assay was started by incubating the reaction mixture in a 96-well plate at 30° C. for 30-min. After the incubation, 25 µL ADP-Glo reagent was added and the reaction was incubated at room temperature for 40-min to stop the reaction and degrade residual ATP. The ADP product was then converted to ATP by adding 50 µL per well of detection reagent. Luminescence was detected after 30-min room temperature incubation with the Molecular device I3X plate reader. The IC50 values were calculated from a series of percent inhibition values determined at a range of inhibitor concentration using software routines as implemented in the GraphPad Prism 7 software and Sigma Plot 13.0.

Chain of GST-tagged recombinant human RIPK2 (O43353 whole entry): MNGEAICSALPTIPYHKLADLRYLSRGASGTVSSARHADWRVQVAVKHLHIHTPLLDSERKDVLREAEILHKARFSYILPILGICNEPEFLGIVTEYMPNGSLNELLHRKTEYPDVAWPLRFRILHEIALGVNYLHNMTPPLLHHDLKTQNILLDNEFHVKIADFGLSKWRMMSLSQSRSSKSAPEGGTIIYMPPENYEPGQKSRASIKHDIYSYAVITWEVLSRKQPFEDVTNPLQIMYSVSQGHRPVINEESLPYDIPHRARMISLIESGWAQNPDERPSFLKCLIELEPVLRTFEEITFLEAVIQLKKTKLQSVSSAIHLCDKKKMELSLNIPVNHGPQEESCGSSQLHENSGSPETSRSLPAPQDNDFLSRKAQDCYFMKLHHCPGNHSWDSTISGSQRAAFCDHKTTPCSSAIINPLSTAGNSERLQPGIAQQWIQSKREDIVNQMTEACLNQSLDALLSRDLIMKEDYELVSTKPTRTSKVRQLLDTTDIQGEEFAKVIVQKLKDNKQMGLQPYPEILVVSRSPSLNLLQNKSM

Cc1nc2[nH]ccc2cc1-c1ccn2nc(NC(=O)[C@@H]3C[C@@H]3F)cc2c1 [Example 3, (1S,2S)-2-fluoro-N-(5-(6-methyl-1 H-pyrrolo[2,3-b]pyridin-5-yl)pyrazolo[1,5-a]pyridin-2-yl)cyclopropane-1-carboxamide] showed an IC50 [1] of 0.332 µM, an IC50 [2] of 0.025 µM and an IC50 [3] of 0.0007 µM.

Work on O=C(Nc1cc2cc(-c3cc4cc[nH]c4nc3Cl)ccn2n1)[C@@H]1C[C@@H]1F [Example 4, (1S,2S)-N-(5-(6-chloro-1H-pyrrolo[2,3-b]pyridin-5-yl)pyrazolo[1,5-a]pyridin-2-yl)-2-fluorocyclopropane-1-carboxamide] yielded an IC50 [1] of 0.351 µM, an IC50 [2] of 0.0139 µM and an IC50 [3] of 0.0012 µM.

For O=C(Nc1cc2cc(-c3cnc4[nH]ccc4c3F)ccn2n1)[C@@H]1C[C@@H]1F [Example 5, (1 S,2S)-2-fluoro-N-(5-(4-fluoro-1 H-pyrrolo[2,3-b]pyridin-5-yl)pyrazolo[1,5-a]pyridin-2-yl)cyclopropane-1-carboxamide], the IC50 [1] was 0.6 µM, the IC50 [2] was 0.0484 µM and the IC50 [3] was 0.0112 µM.

Compound COc1c(-c2ccn3nc(NC(=O)[C@@H]4C[C@@H]4F)cc3c2)cnc2[nH]ccc12 [Example 6, (1S,2S)-2-fluoro-N-(5-(4-methoxy-1H-pyrrolo[2,3-b]pyridin-5-yl)pyrazolo[1,5-a]pyridin-2-yl)cyclopropane-1-carboxamide] has an IC50 [1] of 0.806 µM, an IC50 [2] of 0.168 µM and an IC50 [3] of 0.009 µM.

O=C(Nc1cc2cc(-c3cnc4[nH]cc(F)c4c3)ccn2n1)[C@@H]1C[C@@H]1F [Example 7, (1S,2S)-2-fluoro-N-(5-(3-fluoro-1 H-pyrrolo[2,3-b]pyridin-5-yl)pyrazolo[1,5-a]pyridin-2-yl)cyclopropane-1-carboxamide] showed an IC50 [1] of 0.732 µM, an IC50 [2] of 0.0243 µM and an IC50 [3] of 0.0036 µM.

In the case of Cc1cc2cc(-c3ccn4nc(NC(=O)[C@@H]5C[C@@H]5F)cc4c3)cnc2[nH]1 [Example 8, (1S,2S)-2-fluoro-N-(5-(2-methyl-1H-pyrrolo[2,3-b]pyridin-5-yl)pyrazolo[1,5-a]pyridin-2-yl)cyclopropane-1-carboxamide], the IC50 [1] is reported as 0.625 µM, the IC50 [2] is reported as 0.0843 µM and the IC50 [3] is reported as 0.004 µM.

Cc1c(-c2ccn3nc(NC(=O)[C@@H]4C[C@@H]4F)cc3c2)cnc2[nH]ccc12 [Example 9, (1S,2S)-2-fluoro-N-(5-(4-methyl-1H-pyrrolo[2,3-b]pyridin-5-yl)pyrazolo[1,5-a]pyridin-2-yl)cyclopropane-1-carboxamide] gave an IC50 [1] of 0.101 µM, an IC50 [2] of 0.00877 µM and an IC50 [3] of 0.0031 µM.

In the case of Nc1c(-c2ccn3nc(NC(=O)[C@@H]4C[C@@H]4F)cc3c2)cnc2[nH]ccc12 [Example 10, (1S,2S)-N-(5-(4-amino-1H-pyrrolo[2,3-b]pyridin-5-yl)pyrazolo[1,5-a]pyridin-2-yl)-2-fluorocyclopropane-1-carboxamide], the IC50 [1] is reported as 3.94 µM, the IC50 [2] is reported as 0.0915 µM and the IC50 [3] is reported as 0.0542 µM.

O=C(Nc1cc2cc(-c3cnc4[nH]cc(Cl)c4c3)ccn2n1)[C@@H]1C[C@@H]1F [Example 11, (1S,2S)-N-(5-(3-chloro-1H-pyrrolo[2,3-b]pyridin-5-yl)pyrazolo[1,5-a]pyridin-2-yl)-2-fluorocyclopropane-1-carboxamide] gave an IC50 [1] of 0.654 µM, an IC50 [2] of 0.0334 µM and an IC50 [3] of 0.0032 µM.

In the case of Cc1c[nH]c2ncc(-c3ccn4nc(NC(=O)[C@@H]5C[C@@H]5F)cc4c3)cc12 [Example 12, (1S,2S)-2-fluoro-N-(5-(3-methyl-1H-pyrrolo[2,3-b]pyridin-5-yl)pyrazolo[1,5-a]pyridin-2-yl)cyclopropane-1-carboxamide], the IC50 [1] is reported as 0.687 µM, the IC50 [2] is reported as 0.0886 µM and the IC50 [3] is reported as 0.0025 µM.

Compound CCc1c(-c2ccn3nc(NC(=O)[C@@H]4C[C@@H]4F)cc3c2)cnc2[nH]ccc12 [Example 13, (1S,2S)-N-(5-(4-ethyl-1H-pyrrolo[2,3-b]pyridin-5-yl)pyrazolo[1,5-a]pyridin-2-yl)-2-fluorocyclopropane-1-carboxamide] has an IC50 [2] of 0.129 µM and an IC50 [3] of 0.0123 µM.

CSc1c(-c2ccn3nc(NC(=O)[C@@H]4C[C@@H]4F)cc3c2)cnc2[nH]ccc12 [Example 14, (1S,2S)-2-fluoro-N-(5-(4-(methylthio)-1H-pyrrolo[2,3-b]pyridin-5-yl)pyrazolo[1,5-a]pyridin-2-yl)cyclopropane-1-carboxamide] gave an IC50 [2] of 0.195 µM and an IC50 [3] of 0.0122 µM.

In the case of CC(C)c1c(-c2ccn3nc(NC(=O)[C@@H]4C[C@@H]4F)cc3c2)cnc2[nH]ccc12 [Example 15, (1S,2S)-2-fluoro-N-(5-(4-isopropyl-1H-pyrrolo[2,3-b]pyridin-5-yl)pyrazolo[1,5-a]pyridin-2-yl)cyclopropane-1-carboxamide], the IC50 [2] is reported as 0.828 µM and the IC50 [3] is reported as 0.159 µM.

O=C(Nc1cc2cc(-c3cnc4[nH]ccc4c3C3CC3)ccn2n1)[C@@H]1C[C@@H]1F [Example 16, (1S,2S)-N-(5-(4-cyclopropyl-1 H-pyrrolo[2,3-b]pyridin-5-yl)pyrazolo[1,5-a]pyridin-2-yl)-2-fluorocyclopropane-1-carboxamide] was tested, and the IC50 [2] was 0.204 µM and the IC50 [3] was 0.013 µM.

N#Cc1c(-c2ccn3nc(NC(=O)[C@@H]4C[C@@H]4F)cc3c2)cnc2[nH]ccc12 [Example 17, (1S,2S)-N-(5-(4-cyano-1H-pyrrolo[2,3-b]pyridin-5-yl)pyrazolo[1,5-a]pyridin-2-yl)-2-fluorocyclopropane-1-carboxamide] showed an IC50 [2] of 0.0702 µM and an IC50 [3] of 0.0202 µM.

Work on O=C(Nc1cc2cc(-c3cnc4[nH]c(Cl)cc4c3)ccn2n1)[C@@H]1C[C@@H]1F [Example 18, (1S,2S)-N-(5-(2-chloro-1H-pyrrolo[2,3-b]pyridin-5-yl)pyrazolo[1,5-a]pyridin-2-yl)-2-fluorocyclopropane-1-carboxamide] yielded an IC50 [2] of 0.0305 µM and an IC50 [3] of 0.0036 µM.

For Cc1c(-c2ccn3nc(NC(=O)[C@H]4C[C@H]4F)cc3c2)cnc2[nH]ccc12 [Example 20, (1R,2R)-2-fluoro-N-(5-(4-methyl-1H-pyrrolo[2,3-b]pyridin-5-yl)pyrazolo[1,5-a]pyridin-2-yl)cyclopropane-1-carboxamide], the IC50 [1] was 0.0655 µM, the IC50 [2] was 0.00837 µM and the IC50 [3] was 0.0031 µM.

For Cc1c(-c2ccn3nc(NC(=O)[C@H]4C[C@@H]4F)cc3c2)cnc2[nH]ccc12 [Example 21, (1R,2S)-2-fluoro-N-(5-(4-methyl-1H-pyrrolo[2,3-b]pyridin-5-yl)pyrazolo[1,5-a]pyridin-2-yl)cyclopropane-1-carboxamide], the IC50 [1] was 0.0614 µM, the IC50 [2] was 0.00825 µM and the IC50 [3] was 0.0033 µM.

Cc1c(-c2ccn3nc(NC(=O)[C@@H]4C[C@H]4F)cc3c2)cnc2[nH]ccc12 [Example 22, (1S,2R)-2-fluoro-N-(5-(4-methyl-1H-pyrrolo[2,3-b]pyridin-5-yl)pyrazolo[1,5-a]pyridin-2-yl)cyclopropane-1-carboxamide] gave an IC50 [1] of 0.0571 µM, an IC50 [2] of 0.0159 µM and an IC50 [3] of 0.0042 µM.

O=C(Nc1cc2cc(-c3cnc4[nH]ccc4c3Cl)ccn2n1)C1CC1 [Example 23, N-(5-(4-chloro-1H-pyrrolo[2,3-b]pyridin-5-yl)pyrazolo[1,5-a]pyridin-2-yl)cyclopropanecarboxamide] gave an IC50 [2] of 0.0199 µM and an IC50 [3] of 0.0092 µM.

Cc1c(-c2ccn3nc(NC(=O)[C@@H]4C[C@@H]4F)cc3c2)cnc2[nH]cc(F)c12 [Example 24, (1S,2S)-2-fluoro-N-(5-(3-fluoro-4-methyl-1H-pyrrolo[2,3-b]pyridin-5-yl)pyrazolo[1,5-a]pyridin-2-yl)cyclopropane-1-carboxamide] gave an IC50 [1] of 0.0757 µM, an IC50 [2] of 0.0149 µM and an IC50 [3] of 0.0029 µM.

Cc1c(-c2ccn3nc(NC(=O)[C@@H]4C[C@@H]4F)cc3c2)cnc2[nH]cc(Cl)c12 [Example 25, (1S,2S)-N-(5-(3-chloro-4-methyl-1H-pyrrolo[2,3-b]pyridin-5-yl)pyrazolo[1,5-a]pyridin-2-yl)-2-fluorocyclopropane-1-carboxamide] was tested, and the IC50 [2] was 0.0322 µM and the IC50 [3] was 0.0017 µM.

Compound O=C(Nc1cc2cc(-c3cnc4[nH]ccc4c3Cl)ccn2n1)[C@@H]1C[C@H]1F [Example 26, (1S,2R)-N-(5-(4-chloro-1H-pyrrolo[2,3-b]pyridin-5-yl)pyrazolo[1,5-a]pyridin-2-yl)-2-fluorocyclopropane-1-carboxamide] has an IC50 [2] of 0.0161 µM and an IC50 [3] of 0.0194 µM.

Compound O=C(Nc1cc2cc(-c3cnc4[nH]ccc4c3Cl)ccn2n1)[C@H]1C[C@@H]1F [Example 27, (1R,2S)-N-(5-(4-chloro-1H-pyrrolo[2,3-b]pyridin-5-yl)pyrazolo[1,5-a]pyridin-2-yl)-2-fluorocyclopropane-1-carboxamide] has an IC50 [1] of 0.162 µM, an IC50 [2] of 0.0151 µM and an IC50 [3] of 0.0124 µM.

O=C(Nc1cc2cc(-c3cnc4[nH]ccc4c3Cl)ccn2n1)[C@H]1C[C@H]1F [Example 28, (1R,2R)-N-(5-(4-chloro-1H-pyrrolo[2,3-b]pyridin-5-yl)pyrazolo[1,5-a]pyridin-2-yl)-2-fluorocyclopropane-1-carboxamide] showed an IC50 [2] of 0.0215 µM and an IC50 [3] of 0.0139 µM.

O=C(Nc1cc2cc(-c3cnc4[nH]cc(Cl)c4c3Cl)ccn2n1)[C@@H]1C[C@@H]1F [Example 29, (1S,2S)-N-(5-(3,4-dichloro-1H-pyrrolo[2,3-b]pyridin-5-yl)pyrazolo[1,5-a]pyridin-2-yl)-2-fluorocyclopropane-1-carboxamide] showed an IC50 [1] of 0.177 µM, an IC50 [2] of 0.0154 µM and an IC50 [3] of 0.0043 µM.
